Earlier results in patent publication US5045452A, “Method for evaluating nephrotoxicity” (Brigham and Women's Hospital, priority 1988, dated 1991).

Test system: N-acetyl-beta-D-glucosaminidase
Conditions: exposed workers

## [Pb] [lead]
  urinary acetyl glucosaminidase excretion: elevated
